Our source for the Ki and IC50 values is BindingDB's records for doi:10.1016/s0960-894x(99)00064-5 (Institut De Chimie Organique De L'Universit&#233, 1999).

pIC50, pKi: −log10 of the molar value.

Test [1] concerns the target Beta-galactosidase (Canavalia ensiformis). In words: Inhibition constant against beta-galactosidase enzyme of jack bean was reported.
The target is the same in test [2]. The test is described as above. This is another data set of the same source.

Usually pKi stands for the Ki on a negative log10 scale, so that one unit is a factor of ten. Higher therefore signals a small Ki. One may read the pIC50 as the negative decadic logarithm of the IC50, by convention in mol/L. A higher pIC50 goes with a low IC50.

In turn, `CC(=O)N[C@H]1C(O)O[C@H](C(O)CO)[C@@H]1C[C@H]1O[C@H](CO)[C@@H](O)[C@H](O)[C@@H]1O` (some centres not stated) [N-[2,5-Dihydroxy-6-hydroxymethyl-4-(3,4,5-trihydroxy-6-hydroxymethyl-tetrahydro-pyran-2-ylmethyl)-tetrahydro-pyran-3-yl]-acetamide and N-[5-(1,2-Dihydroxy-ethyl)-2-hydroxy-4-(3,4,5-trihydroxy-6-hydroxymethyl-tetrahydro-pyran-2-ylmethyl)-tetrahydro-furan-3-yl]-acetamide] gave a pKi in test [1] of 5.12. The compound further showed a pIC50 in test [2] of 5.03.
